Data taken from ChEMBL document CHEMBL1649479, “In vitro activity of doripenem against Burkholderia pseudomallei” (2009).
≈ marks a conversion by molar mass, not a printed value.

Key:
Format in all cases: functional
[1] = tested on: Burkholderia pseudomallei; assay: Selectivity ratio of MIC for Burkholderia pseudomallei by agar dilution method to MIC for Burkholderia pseudomallei by Etest method
Pseudomonas aeruginosa = assay: Antimicrobial activity against Pseudomonas aeruginosa ATCC 27853 by agar dilution method
[2] = tested on: Burkholderia pseudomallei; assay: Antimicrobial activity against Burkholderia pseudomallei by agar dilution method
[3] = tested on: Burkholderia pseudomallei; assay: Antimicrobial activity against Burkholderia pseudomallei by Etest method
Escherichia coli = assay: Antimicrobial activity against Escherichia coli ATCC 25922 by agar dilution method
[4] = Burkholderia pseudomallei, read-out: MIC90

SMILES | Ratio [1] | MIC (Pseudomonas aeruginosa) | MIC90 [2] | inhibition zone (IZ) [2] | MIC50 ([2]; Burkholderia pseudomallei) | MIC90 [2, 4] | MIC [3] | MIC50 [3] | MIC90 [3] | MIC (Escherichia coli)
C[C@@H](O)[C@H]1C(=O)N2C(C(=O)O)=C(S[C@@H]3CN[C@H](CNS(N)(=O)=O)C3)[C@H](C)[C@H]12 [DORIPENEM] | 2 | 0.125 µg/mL (≈ 0.297 µM) | <=2 ug ml-1 | 24 mm | 1 µg/mL (≈ 2.38 µM) | 1.5 µg/mL (≈ 3.57 µM) | 0.19 µg/mL (≈ 0.452 µM) | 0.5 µg/mL (≈ 1.19 µM) | 0.75 µg/mL (≈ 1.78 µM) | 0.012 µg/mL (≈ 0.0285 µM)
C[C@@H](O)[C@H]1C(=O)N2C(C(=O)O)=C(SCCNC=N)C[C@H]12 [IMIPENEM ANHYDROUS] | – | – | – | – | 1 µg/mL (≈ 3.34 µM) | 1 µg/mL (≈ 3.34 µM) | – | 0.5 µg/mL (≈ 1.67 µM) | 1 µg/mL (≈ 3.34 µM) | –
C[C@@H](O)[C@H]1C(=O)N2C(C(=O)O)=C(S[C@@H]3CN[C@H](C(=O)N(C)C)C3)[C@H](C)[C@H]12 [MEROPENEM] | – | – | – | – | 3 µg/mL (≈ 7.82 µM) | 4 µg/mL (≈ 10.4 µM) | – | 1 µg/mL (≈ 2.61 µM) | 2 µg/mL (≈ 5.22 µM) | –
